Measurements as given in article PMC6983048 (Molecules, 2019).
Like-named read-outs stand apart in the source and are kept apart here.

Assays:
human DHFR (hDHFR) = settings: relative to TMP; cited from earlier work
[1] = tested on: poly(dA-dT)2 (DNA, polymer) AT; assay: ethidium bromide displacement fluorescence; settings: Na+ 1 M; 0.1 M Tris pH 8.0, room temperature; ethidium displaced; apparent
pBR322 plasmid [2] = assay: Ethidium bromide assay, DNA-binding effects on plasmid pBR322; settings: for Decrease of Fluorescence: 10 μM compound, plasmid pBR322 with ethidium bromide, 25 °C 30 min, % fluorescence relative to controls (no drug = 100%); for Binding to DNA (pBR322 plasmid), in words: ethidium bromide assay
Description: Each well of a 96-well plate was loaded with Tris buffer containing ethidium bromide (0.1 M Tris, 1 M NaCl, pH 8.0, 0.5 mM EtBr final concentration, 100 μL). […] Fluorescence readings are reported as % fluorescence relative to the controls.

[3] = tested on: poly(dG-dC)2 (DNA, polymer) GC; assay: ethidium bromide displacement fluorescence; settings: Na+ 1 M; 0.1 M Tris pH 8.0, room temperature; ethidium displaced; apparent
[4] = molecular target: T1, recombinant human DHFR enzyme (Homo sapiens, UniProt P00374); assay: Dihydrofolate reductase (DHFR) inhibition assay; type: biochemical; settings: pH 7.5, 22 °C, absorbance 340 nm
T1 construct: purchased
T1 sequence (P00374 1-187): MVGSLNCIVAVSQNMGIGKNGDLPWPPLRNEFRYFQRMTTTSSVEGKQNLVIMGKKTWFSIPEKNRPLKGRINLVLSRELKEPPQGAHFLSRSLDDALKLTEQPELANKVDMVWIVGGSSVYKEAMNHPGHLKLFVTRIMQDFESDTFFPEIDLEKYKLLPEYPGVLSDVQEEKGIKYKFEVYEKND
Description: The procedure for detection of DHFR activity inhibition included preparation of a test mixture in a 1.0 mL quartz cuvette for the spectrophotometric method. Assay buffer—1× for DHFR (pH 7.5) and 1.5 × 10^−3 units of DHFR were added to the appropriate tube and thoroughly mixed. […] After mixing accurately, the reaction was initiated by adding 10 mM dihydrofolic acid (5 µL for each reaction) and a kinetics program was immediately started. The changes in absorbance (ΔOD/ min) were measured by the spectrophotometer Specord 200Plus (Analytikjena, Germany) at 340 nm and 22 °C, and the kinetic program (reading every 15 s for 2.5 min) according to the instructions supplied with the set and recommended by the producer.

poly(dA-dT)2 [5] = assay: Ethidium displacement assay, DNA-binding constants; settings: apparent association constant
Description: (§1) The fluorescence of DNA solutions (calf thymus DNA, T4 coliphage DNA, poly(dA-dT)2, and poly(dG-dC)2 with the investigated compound (final concentrations 10, 50, 100 µM) was measured by the fluorescence spectrophotometer Infinite M200 TECAN at room temperature according to the procedure described above. Then, the concentration, which reduced fluorescence to 50% was determined for each compound. The data points of fluorescence intensity were fitted to the theoretical curves, with one or two different iterative nonlinear least squares computer routines. The apparent binding constant was calculated from KEtBr [EtBr] = Kapp [drug], where [drug] = the concentration of the tested compound at 50% reduction of fluorescence and KEtBr and [EtBr] are known. TMP and MTX were also investigated.

calf thymus DNA [6] = assay: Ethidium displacement assay, DNA-binding constants; settings: apparent association constant
Description: as §1

T4 coliphage DNA [7] = assay: Ethidium displacement assay, DNA-binding constants; settings: apparent association constant
Description: as §1

poly(dG-dC)2 [8] = assay: Ethidium displacement assay, DNA-binding constants; settings: apparent association constant
Description: as §1

DHFR = tested on: DHFR; parameters: method as in PMID 30991189; settings: cited from earlier work
poly(dG-dC)2 [9] = tested on: poly(dG-dC)2; parameters: method as in PMID 2540332; settings: KEtBr, known constant of ethidium bromide; cited from earlier work
T4 coliphage DNA [10] = tested on: T4 coliphage DNA; parameters: method as in PMID 2540332; settings: KEtBr, known constant of ethidium bromide; cited from earlier work
calf thymus DNA [11] = tested on: calf thymus DNA; parameters: method as in PMID 2540332; settings: KEtBr, known constant of ethidium bromide; cited from earlier work
poly(dA-dT)2 [12] = tested on: poly(dA-dT)2; parameters: method as in PMID 2540332; settings: KEtBr, known constant of ethidium bromide; cited from earlier work
hDHFR = tested on: hDHFR; parameters: method as in PMID 28152430; settings: Wang's compounds; read-out: IC50 (Figure 1); cited from earlier work
pBR322 plasmid [13] = tested on: pBR322 plasmid; parameters: method as in PMID 27008800; settings: same conditions; cited from earlier work
[14] = Sabry's compounds, read-out: IC50 (Figure 1)
[15] = read-out: DHFR inhibitory potency IC50

Decrease of Fluorescence (pBR322 plasmid [2]) [%]	IC50 [4] [µM]	SMILES	Kapp [1]	Kapp [3]	Kapp Poly (dA-dT)2 (poly(dA-dT)2 [5]) [M⁻¹]	Kapp Calf Thymus DNA (calf thymus DNA [6]) [M⁻¹]	Kapp T4 DNA (T4 coliphage DNA [7]) [M⁻¹]	Kapp Poly (dG-dC)2 (poly(dG-dC)2 [8]) [M⁻¹]	further results
–	–	CCc1nc(N)nc(N)c1C#CCc1cc(OC)c(OC)c(OC)c1 [C]	–	–	–	–	–	–	potency greater than TMP (human DHFR (hDHFR)): 3500 fold
71.43	21.8	COc1cc(C(=O)Nc2cnc(N)nc2)cc(OC)c1OC [Compound 1, N-(2-Aminopyrimidin-5-yl)-3,4,5-Trimethoxybenzamide]	11.7 ± 0.2 × 10^5 M^-1	1.3 ± 0.2 × 10^5 M^-1	1.17e+06	240000	290000	130000	–
69.17	15.9	COc1cc(CC(=O)Nc2ccc(N)cc2)cc(OC)c1OC [Compound 5, N-(4-Aminophenyl)-2-(3,4,5 Trimethoxyphenyl)Acetamide]	14 ± 0.2 × 10^5 M^-1	3.0 ± 0.2 × 10^5 M^-1	1.4e+06	520000	680000	300000	–
71.43	15.1	COc1cc(CCC(=O)Nc2ccc(N)cc2)cc(OC)c1OC [Compound 6, N-(4-Aminophenyl)-3-(3,4,5-Trimethoxyphenyl)Propanamide]	4.2 ± 0.2 × 10^5 M^-1	1.1 ± 0.2 × 10^5 M^-1	420000	460000	90000	110000	–
–	–	COc1ccc(C(=O)Nc2ccc3nc(SC)n(-c4ccc(OC)cc4)c(=O)c3c2)cc1 [D]	–	–	–	–	–	–	IC50 (DHFR; [14]): 200 µM; IC50 (DHFR; [15]): 0.2 µM
–	–	COc1ccc(-n2c(SC)nc3ccc(NC(=O)C4CCCS4)cc3c2=O)cc1 (stereo not drawn) [E]	–	–	–	–	–	–	IC50 (DHFR; [14]): 200 µM
–	–	CC[n+]1c(-c2ccccc2)c2cc(N)ccc2c2ccc(N)cc21 [EtBr, Ethidium bromide]	–	–	–	–	–	–	Kapp Poly (dG-dC)2 (poly(dG-dC)2 [9]): 9.9e+06 M⁻¹; Kapp T4 DNA (T4 coliphage DNA [10]): 1e+07 M⁻¹; Kapp Calf Thymus DNA (calf thymus DNA [11]): 1e+07 M⁻¹; Kapp Poly (dA-dT)2 (poly(dA-dT)2 [12]): 95 ^b* × 10^5 M^−1
–	–	COc1ccc(CCc2ccc3nc(N)nc(N)c3n2)cc1 [F]	–	–	–	–	–	–	IC50 (DHFR; [15]): 0.2 µM; IC50 (hDHFR): 760 µM
–	–	COc1cccc(CCc2ccc3nc(N)nc(N)c3n2)c1 [G]	–	–	–	–	–	–	IC50 (hDHFR): 450 µM
–	–	COc1cc(CCc2ccc3nc(N)nc(N)c3n2)cc(OC)c1OC [H]	–	–	–	–	–	–	IC50 (hDHFR): 290 µM
100	–	CN(Cc1cnc2nc(N)nc(N)c2n1)c1ccc(C(=O)N[C@@H](CCC(=O)O)C(=O)O)cc1 [MTX, methotrexate, reference compound]	–	–	–	–	–	–	IC50 (DHFR; [15]): […]; Binding to DNA (pBR322 plasmid), in words (pBR322 plasmid [2]): do not bind to DNA
100	–	COc1cc(Cc2cnc(N)nc2N)cc(OC)c1OC [TMP, 2,4-diamino-5-(3,4,5-trimethoxybenzyl) pyrimidine, reference compound]	–	–	–	–	–	–	Binding to DNA (pBR322 plasmid), in words (pBR322 plasmid [2]): do not bind to DNA

SMILES	Decrease of Fluorescence (pBR322 plasmid [2]) [%]	IC50 [4] [µM]	Kapp [1]	Kapp [3]	Kapp Poly (dA-dT)2 (poly(dA-dT)2 [5]) [M⁻¹]	Kapp Calf Thymus DNA (calf thymus DNA [6]) [M⁻¹]	Kapp T4 DNA (T4 coliphage DNA [7]) [M⁻¹]	Kapp Poly (dG-dC)2 (poly(dG-dC)2 [8]) [M⁻¹]	further results
COc1cc(CC(=O)Nc2cnc(N)nc2)cc(OC)c1OC [Compound 2, N-(2-Aminopyrimidin-5-yl)-2-(3,4,5-Trimethoxyphenyl)Acetamide]	45.18	0.99	3.9 ± 0.2 × 10^5 M^-1	0.8 ± 0.2 × 10^5 M^-1	390000	440000	110000	80000	–
COc1cc(CCC(=O)Nc2cnc(N)nc2)cc(OC)c1OC [Compound 3, N-(2-Aminopyrimidin-5-yl)-3-(3,4,5-Trimethoxyphenyl)Propanamide]	69.92	–	3.6 ± 0.2 × 10^5 M^-1	0.5 ± 0.2 × 10^5 M^-1	360000	370000	780000	50000	–
COc1cc(C(=O)Nc2ccc(N)cc2)cc(OC)c1OC [Compound 4, N-(4-Aminophenyl)-3,4,5-Trimethoxybenzamide]	80.43	1.02	7.9 ± 0.2 × 10^5 M^-1	1.6 ± 0.2 × 10^5 M^-1	790000	590000	390000	160000	–
Cn1cc(NC(=O)c2cc(NC(=O)CN=C(N)N)cn2C)cc1C(=O)NCCC(=N)N [NT, netropsin, reference compound]	74	–	8.75e+07 M⁻¹	250000 M⁻¹	8.75e+07	870000	830000	250000	DNA-binding effect (fluorescence) (pBR322 plasmid [13]): 74%
